# What was measured:
# [1] = system: Staphylococcus aureus ATCC 29213; details: S.aureus, cited from earlier work
# [2] = system: Staphylococcus aureus (ATCC 29213); assay: Glucose consumption susceptibility test, blood culture diluted in MHB with glucose (Example 1); format: cell-based; set-up: glucose concentration, t = 0 / glucose concentration, t = 60 / glucose concentration, t = 120 / glucose concentration, t = 180 / glucose concentration, t = 240 / dC/dT (rate of change in glucose concentration): unit not given here; details: S. aureus; for glucose concentration, t = 60: 60 minutes; for glucose concentration, t = 120: 120 minutes; for glucose concentration, t = 180: 180 minutes; for glucose concentration, t = 240: 240 minutes
# Method: (§1) Strains of Escherichia coli (ATCC 25922), Enterococcus faecalis (ATCC 29212) and Staphylococcus aureus (ATCC 29213) were inoculated in blood culture bottles (SVA, Uppsala, Sweden) and cultivated according to the manufacturer's instructions until positive.
# (§2) Medium from each blood culture bottle was diluted 1:100 with cation adjusted Mueller-Hinton broth (SVA, Uppsala, Sweden) supplemented with glucose to a concentration of 1.0 mg/mL.
# (§3) Glucose concentrations were measured at 0, 60, 120, 180, and 240 minutes using a WaveSense Jazz glucometer (AgaMatrix, Inc., Salem, N.H., USA) with accompanying test strips.
# (§4) Susceptibility scores corresponding to MIC values were calculated as described above. A 80% threshold was applied, i.e. the lowest concentration of antibiotic that entailed a rate of change in glucose concentration that was equal to or less than 80% of the reference was selected as the Minimal Inhibitory Concentration. The rate of change was calculated between the measurements at 60 and 180 minutes.
# [3] = system: Enterococcus faecalis (ATCC 29212); assay: as above; format: cell-based; set-up: glucose concentration, t = 0 / glucose concentration, t = 60 / glucose concentration, t = 120 / glucose concentration, t = 180 / glucose concentration, t = 240 / dC/dT (rate of change in glucose concentration): unit not given here; details: for F = the rate of change in glucose concentration in relation to the reference / dC/dT (rate of change in glucose concentration) / glucose concentration, t = 0 / glucose concentration, t = 60 / glucose concentration, t = 120 / glucose concentration, t = 180 / glucose concentration, t = 240: E. faecalis; for glucose concentration, t = 0: 0 minutes; for glucose concentration, t = 60: 60 minutes; for glucose concentration, t = 120: 120 minutes; for glucose concentration, t = 180: 180 minutes; for glucose concentration, t = 240: 240 minutes
# Method: as §1, §2, §3, §4
compound,measurement,setting,value
"CN[C@H](CC(C)C)C(=O)N[C@H]1C(=O)N[C@@H](CC(N)=O)C(=O)N[C@H]2C(=O)N[C@H]3C(=O)N[C@H](C(=O)N[C@H](C(=O)O)c4cc(O)cc(O)c4-c4cc3ccc4O)[C@H](O)c3ccc(c(Cl)c3)Oc3cc2cc(c3O[C@@H]2O[C@H](CO)[C@@H](O)[C@H](O)[C@H]2O[C@H]2C[C@](C)(N)[C@H](O)[C@H](C)O2)Oc2ccc(cc2Cl)[C@H]1O [Vancomycin, vancomycin]","MIC, EUCAST, range in parentheses",[1]; range obtained by EUCAST from ISO 20776-1: 2006,(0.5-2) ug/mL
same,"MIC, EUCAST","[1]; reference value, Mueller-Hinton agar, incubation 18±2 h",1 µg/mL
same,F = the rate of change in glucose concentration in relation to the reference,[2]; antibiotic 0.25 μg/mL,75%
same,dC/dT (rate of change in glucose concentration),[2]; antibiotic 0.25 μg/mL,25
same,"glucose concentration, t = 60",[2]; antibiotic 0.25 μg/mL,142
same,"glucose concentration, t = 120",[2]; antibiotic 0.25 μg/mL,133
same,"glucose concentration, t = 180",[2]; antibiotic 0.25 μg/mL,92
same,"glucose concentration, t = 240",[2]; antibiotic 0.25 μg/mL,42
same,F = the rate of change in glucose concentration in relation to the reference,[2]; antibiotic 0.5 μg/mL,84%
same,dC/dT (rate of change in glucose concentration),[2]; antibiotic 0.5 μg/mL,28
same,"glucose concentration, t = 60",[2]; antibiotic 0.5 μg/mL,156
same,"glucose concentration, t = 120",[2]; antibiotic 0.5 μg/mL,142
same,"glucose concentration, t = 180",[2]; antibiotic 0.5 μg/mL,100
same,"glucose concentration, t = 240",[2]; antibiotic 0.5 μg/mL,51
same,F = the rate of change in glucose concentration in relation to the reference,[2]; antibiotic 1 μg/mL,96%
same,dC/dT (rate of change in glucose concentration),[2]; antibiotic 1 μg/mL,32
same,"glucose concentration, t = 60",[2]; antibiotic 1 μg/mL,161
same,"glucose concentration, t = 120",[2]; antibiotic 1 μg/mL,140
same,"glucose concentration, t = 180",[2]; antibiotic 1 μg/mL,97
same,"glucose concentration, t = 240",[2]; antibiotic 1 μg/mL,51
same,F = the rate of change in glucose concentration in relation to the reference,[2]; antibiotic 2 μg/mL,88%
same,dC/dT (rate of change in glucose concentration),[2]; antibiotic 2 μg/mL,30
same,"glucose concentration, t = 60",[2]; antibiotic 2 μg/mL,160
same,"glucose concentration, t = 120",[2]; antibiotic 2 μg/mL,143
same,"glucose concentration, t = 180",[2]; antibiotic 2 μg/mL,101
same,"glucose concentration, t = 240",[2]; antibiotic 2 μg/mL,53
same,F = the rate of change in glucose concentration in relation to the reference,[2]; antibiotic 4 μg/mL,39%
same,dC/dT (rate of change in glucose concentration),[2]; antibiotic 4 μg/mL,13
same,"glucose concentration, t = 60",[2]; antibiotic 4 μg/mL,157
same,"glucose concentration, t = 120",[2]; antibiotic 4 μg/mL,147
same,"glucose concentration, t = 180",[2]; antibiotic 4 μg/mL,131
same,"glucose concentration, t = 240",[2]; antibiotic 4 μg/mL,107
same,F = the rate of change in glucose concentration in relation to the reference,[2]; antibiotic 8 μg/mL,6%
same,dC/dT (rate of change in glucose concentration),[2]; antibiotic 8 μg/mL,2
same,"glucose concentration, t = 60",[2]; antibiotic 8 μg/mL,150
same,"glucose concentration, t = 120",[2]; antibiotic 8 μg/mL,150
same,"glucose concentration, t = 180",[2]; antibiotic 8 μg/mL,146
same,"glucose concentration, t = 240",[2]; antibiotic 8 μg/mL,149
same,F = the rate of change in glucose concentration in relation to the reference,[2]; antibiotic 16 μg/mL,7%
same,dC/dT (rate of change in glucose concentration),[2]; antibiotic 16 μg/mL,3
same,"glucose concentration, t = 60",[2]; antibiotic 16 μg/mL,157
same,"glucose concentration, t = 120",[2]; antibiotic 16 μg/mL,153
same,"glucose concentration, t = 180",[2]; antibiotic 16 μg/mL,152
same,"glucose concentration, t = 240",[2]; antibiotic 16 μg/mL,149
same,F = the rate of change in glucose concentration in relation to the reference,[2]; antibiotic 32 μg/mL,13%
same,dC/dT (rate of change in glucose concentration),[2]; antibiotic 32 μg/mL,5
same,"glucose concentration, t = 60",[2]; antibiotic 32 μg/mL,157
same,"glucose concentration, t = 120",[2]; antibiotic 32 μg/mL,140
same,"glucose concentration, t = 180",[2]; antibiotic 32 μg/mL,148
same,"glucose concentration, t = 240",[2]; antibiotic 32 μg/mL,146
same,F = the rate of change in glucose concentration in relation to the reference,[3]; antibiotic 0.0625 μg/mL,93%
same,dC/dT (rate of change in glucose concentration),[3]; antibiotic 0.0625 μg/mL,34
same,"glucose concentration, t = 0",[3]; antibiotic 0.0625 μg/mL,145
same,"glucose concentration, t = 60",[3]; antibiotic 0.0625 μg/mL,156
same,"glucose concentration, t = 120",[3]; antibiotic 0.0625 μg/mL,139
same,"glucose concentration, t = 180",[3]; antibiotic 0.0625 μg/mL,89
same,F = the rate of change in glucose concentration in relation to the reference,[3]; antibiotic 0.125 μg/mL,83%
same,dC/dT (rate of change in glucose concentration),[3]; antibiotic 0.125 μg/mL,30
same,"glucose concentration, t = 0",[3]; antibiotic 0.125 μg/mL,148
same,"glucose concentration, t = 60",[3]; antibiotic 0.125 μg/mL,154
same,"glucose concentration, t = 120",[3]; antibiotic 0.125 μg/mL,149
same,"glucose concentration, t = 180",[3]; antibiotic 0.125 μg/mL,94
same,F = the rate of change in glucose concentration in relation to the reference,[3]; antibiotic 0.25 μg/mL,82%
same,dC/dT (rate of change in glucose concentration),[3]; antibiotic 0.25 μg/mL,30
same,"glucose concentration, t = 0",[3]; antibiotic 0.25 μg/mL,143
same,"glucose concentration, t = 60",[3]; antibiotic 0.25 μg/mL,155
same,"glucose concentration, t = 120",[3]; antibiotic 0.25 μg/mL,146
same,"glucose concentration, t = 180",[3]; antibiotic 0.25 μg/mL,96
same,F = the rate of change in glucose concentration in relation to the reference,[3]; antibiotic 0.5 μg/mL,82%
same,dC/dT (rate of change in glucose concentration),[3]; antibiotic 0.5 μg/mL,30
same,"glucose concentration, t = 0",[3]; antibiotic 0.5 μg/mL,154
same,"glucose concentration, t = 60",[3]; antibiotic 0.5 μg/mL,155
same,"glucose concentration, t = 120",[3]; antibiotic 0.5 μg/mL,148
same,"glucose concentration, t = 180",[3]; antibiotic 0.5 μg/mL,96
same,F = the rate of change in glucose concentration in relation to the reference,[3]; antibiotic 1 μg/mL,75%
same,dC/dT (rate of change in glucose concentration),[3]; antibiotic 1 μg/mL,27
same,"glucose concentration, t = 0",[3]; antibiotic 1 μg/mL,151
same,"glucose concentration, t = 60",[3]; antibiotic 1 μg/mL,164
same,"glucose concentration, t = 120",[3]; antibiotic 1 μg/mL,153
same,"glucose concentration, t = 180",[3]; antibiotic 1 μg/mL,110
same,F = the rate of change in glucose concentration in relation to the reference,[3]; antibiotic 2 μg/mL,29%
same,dC/dT (rate of change in glucose concentration),[3]; antibiotic 2 μg/mL,11
same,"glucose concentration, t = 0",[3]; antibiotic 2 μg/mL,147
same,"glucose concentration, t = 60",[3]; antibiotic 2 μg/mL,160
same,"glucose concentration, t = 120",[3]; antibiotic 2 μg/mL,152
same,"glucose concentration, t = 180",[3]; antibiotic 2 μg/mL,139
same,"glucose concentration, t = 240",[3]; antibiotic 2 μg/mL,94
same,F = the rate of change in glucose concentration in relation to the reference,[3]; antibiotic 4 μg/mL,19%
same,dC/dT (rate of change in glucose concentration),[3]; antibiotic 4 μg/mL,7
same,"glucose concentration, t = 0",[3]; antibiotic 4 μg/mL,147
same,"glucose concentration, t = 60",[3]; antibiotic 4 μg/mL,162
same,"glucose concentration, t = 120",[3]; antibiotic 4 μg/mL,153
same,"glucose concentration, t = 180",[3]; antibiotic 4 μg/mL,148
same,"glucose concentration, t = 240",[3]; antibiotic 4 μg/mL,149
same,F = the rate of change in glucose concentration in relation to the reference,[3]; antibiotic 8 μg/mL,7%
same,dC/dT (rate of change in glucose concentration),[3]; antibiotic 8 μg/mL,3
same,"glucose concentration, t = 0",[3]; antibiotic 8 μg/mL,150
same,"glucose concentration, t = 60",[3]; antibiotic 8 μg/mL,156
same,"glucose concentration, t = 120",[3]; antibiotic 8 μg/mL,146
same,"glucose concentration, t = 180",[3]; antibiotic 8 μg/mL,151
same,"glucose concentration, t = 240",[3]; antibiotic 8 μg/mL,145
same,MIC,"[3]; Enterococcus faecalis, ATCC29212, read-out: MIC, Measured",1 µg/mL
